The results in this text go back to ChEMBL document CHEMBL4390661, “Pyridazinone-substituted benzenesulfonamides display potent inhibition of membrane-bound human carbonic anhydrase IX and promising antiproliferative activity against cancer cell lines” (Eur J Med Chem, 2019).

For series [1], the target named is T1, Carbonic anhydrase 12 (Homo sapiens, UniProt O43570). The series is described as follows: Inhibition of membrane bound human CA 12 preincubated for 15 mins by phenol red dye-based stopped-flow CO2 hydration assay.
T1 sequence (O43570 whole entry): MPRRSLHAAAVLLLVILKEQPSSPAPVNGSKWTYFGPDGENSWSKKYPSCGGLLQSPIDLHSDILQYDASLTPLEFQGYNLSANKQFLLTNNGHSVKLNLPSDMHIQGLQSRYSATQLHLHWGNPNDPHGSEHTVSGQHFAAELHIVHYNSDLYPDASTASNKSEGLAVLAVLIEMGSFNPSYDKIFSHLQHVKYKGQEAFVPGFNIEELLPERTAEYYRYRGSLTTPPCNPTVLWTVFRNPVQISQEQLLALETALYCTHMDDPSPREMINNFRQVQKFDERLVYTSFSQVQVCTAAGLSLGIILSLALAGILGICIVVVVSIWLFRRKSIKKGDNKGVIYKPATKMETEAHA
A further series concerns the target Carbonic anhydrase 1 (Homo sapiens, UniProt P00915). Kind of series: Inhibition of human cytosolic CA 1 preincubated for 15 mins by phenol red dye-based stopped-flow CO2 hydration assay.
A further series has as its target Carbonic anhydrase 9 (Homo sapiens, UniProt Q16790). The series is described as follows: Inhibition of membrane bound human CA 9 preincubated for 15 mins by phenol red dye-based stopped-flow CO2 hydration assay.
The target in a further series is Carbonic anhydrase 2 (Homo sapiens, UniProt P00918). The series is described as follows: Inhibition of human cytosolic CA 2 preincubated for 15 mins by phenol red dye-based stopped-flow CO2 hydration assay.
In series [2] the test system is SK-MEL-2. The series is described as follows: Cytotoxicity against human SK-MEL-2 cells assessed as reduction in cell viability at 300 uM incubated for 48 hrs under normoxic condition by MTT assay relative to control. It counts as functional, cell-based. (In general: Tetrazolium assays rely on reduction of a dye to a coloured formazan, in cell work by metabolically active cells.)

Series [3] has as its system PANC-1. The series is described as follows: Cytotoxicity against human PANC1 cells assessed as reduction in cell viability incubated for 48 hrs under hypoxia condition by MTT assay relative to human ARPE19 cells. It counts as functional.
Series [4] concerns ARPE-19. The series is described as follows: Cytotoxicity against human ARPE19 cells assessed as reduction in cell viability incubated for 48 hrs under hypoxia condition by MTT assay relative to control. The settings on record: arpe-19, 48 h. It counts as cell-based.
The test system of series [5] is ARPE-19. Kind of series: Cytotoxicity against human ARPE19 cells assessed as reduction in cell viability incubated for 48 hrs under normoxic condition by MTT assay relative to control. It counts as cell-based. The settings on record: arpe-19, 48 h.
Series [6] relates to SK-MEL-2. Kind of series: Cytotoxicity against human SK-MEL-2 cells assessed as reduction in cell viability incubated for 48 hrs under hypoxia condition by MTT assay relative to control. In kind it is functional, cell-based.
Series [7] concerns SK-MEL-2. Kind of series: Cytotoxicity against human SK-MEL-2 cells assessed as reduction in cell viability incubated for 48 hrs under normoxic condition by MTT assay relative to control. It counts as functional, cell-based.
Series [8] deals with T1, Carbonic anhydrase 12.
Description: Inhibition of human CA 12 catalytic domain
Series [9] relates to PANC-1. Kind of series: Cytotoxicity against human PANC1 cells assessed as reduction in cell viability incubated for 48 hrs under hypoxia condition by MTT assay. It counts as functional, cell-based.
Series [10] relates to PANC-1. Kind of series: Cytotoxicity against human PANC1 cells assessed as reduction in cell viability incubated for 48 hrs under hypoxia condition by MTT assay relative to control. It counts as functional, cell-based.
Series [11] relates to PANC-1. The series is described as follows: Cytotoxicity against human PANC1 cells assessed as reduction in cell viability incubated for 48 hrs under normoxic condition by MTT assay relative to control. In kind it is functional, cell-based.

The source made the active and inactive calls. No cut-off for these calls is given here.

Carbonic anhydrase 1, sequence (P00915 whole entry): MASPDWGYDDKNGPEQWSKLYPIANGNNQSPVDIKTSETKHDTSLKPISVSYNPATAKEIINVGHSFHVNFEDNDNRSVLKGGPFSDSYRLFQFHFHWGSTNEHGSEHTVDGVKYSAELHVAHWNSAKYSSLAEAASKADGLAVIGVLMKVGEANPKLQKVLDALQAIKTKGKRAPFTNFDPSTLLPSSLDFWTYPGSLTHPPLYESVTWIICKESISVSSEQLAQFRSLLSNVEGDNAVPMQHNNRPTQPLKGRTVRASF

`Cc1cc(-c2cccnc2)nn(-c2ccc(S(N)(=O)=O)cc2)c1=O`: the Ki on Carbonic anhydrase 12 [1] was 8.8 nM; on Carbonic anhydrase 1 it was 101 nM; at Carbonic anhydrase 9, 2.3 nM; at Carbonic anhydrase 2, 2.9 nM.

`NS(=O)(=O)c1ccc(-n2ncc3ccccc3c2=O)cc1`: the Ki stood at 50.6 nM on Carbonic anhydrase 12 [1], 72.3 nM on Carbonic anhydrase 1, 0.32 nM at Carbonic anhydrase 9 and 0.23 nM on Carbonic anhydrase 2.

As to `NS(=O)(=O)c1ccc(-n2ncc(N3CCCCCC3)cc2=O)cc1`, the Ki is 6.3 nM on Carbonic anhydrase 12 [1], 88.2 nM on Carbonic anhydrase 1, 0.56 nM on Carbonic anhydrase 9 and 0.08 nM at Carbonic anhydrase 2.

As for `CCN1CCN(c2cnn(-c3ccc(S(N)(=O)=O)cc3)c(=O)c2)CC1`, the outcome with SK-MEL-2 [2] was Active. For the same compound, the Ki at Carbonic anhydrase 12 [1] is 25.3 nM; on Carbonic anhydrase 1, 311 nM; at Carbonic anhydrase 9 it was 41.3 nM; on Carbonic anhydrase 2 it was 4.3 nM.

As for `NS(=O)(=O)c1ccc(-n2ncc(N3CCc4ccccc4C3)c(Cl)c2=O)cc1`, the Ki at Carbonic anhydrase 12 [1] was 85.5 nM; at Carbonic anhydrase 1, 738 nM; on Carbonic anhydrase 9 it was 89.6 nM; at Carbonic anhydrase 2, 60.5 nM.

Turning to `NS(=O)(=O)c1ccc(-n2ncc(Cl)c(Cl)c2=O)cc1`, the Ki at Carbonic anhydrase 12 [1] worked out at 9.9 nM; on Carbonic anhydrase 1 it was 482 nM; on Carbonic anhydrase 9, 8.7 nM; at Carbonic anhydrase 2, 2.3 nM. Also, the Activity in the series on PANC-1 [3] is on record as more than 30%.

In the case of `NS(=O)(=O)c1ccc(-n2nc(-c3ccncc3)ccc2=O)cc1`, the Ki on Carbonic anhydrase 12 [1] came to 8.7 nM; on Carbonic anhydrase 1, 227 nM; at Carbonic anhydrase 9, 50.8 nM; on Carbonic anhydrase 2 it was 4.8 nM.

As to `COc1ccc(C2=NN(c3ccc(S(N)(=O)=O)cc3)C(=O)CC2)cc1`, the Activity entry with ARPE-19 [4] was “Dose-dependent effect”; with ARPE-19 [5] it was “Dose-dependent effect”; in the series on PANC-1 [3], more than 30%. Moreover, the Ki on Carbonic anhydrase 12 [1] was found to be 9.9 nM; on Carbonic anhydrase 1, 92.7 nM; at Carbonic anhydrase 9, 2.4 nM; at Carbonic anhydrase 2 it was 0.08 nM.

Turning to `NS(=O)(=O)c1ccc(-n2ncc(N3CCOCC3)c(Cl)c2=O)cc1`, the Activity entry in the series with SK-MEL-2 [6] is “Dose-dependent effect”; in the series on SK-MEL-2 [7] it was “Dose-dependent effect”; in the series with ARPE-19 [5] it was “Non-Toxic”; in the series on PANC-1 [3], more than 30%. Also, the inhibition constant Ki worked out at 36 nM at Carbonic anhydrase 12 [1], 89 nM at Carbonic anhydrase 1, 0.58 nM at Carbonic anhydrase 9 and 0.07 nM at Carbonic anhydrase 2.

For `NS(=O)(=O)c1ccc(N2N=C(c3ccc(Cl)c(Cl)c3)CCC2=O)cc1`, the Ki at Carbonic anhydrase 12 [1] was determined as 67.1 nM; at Carbonic anhydrase 1, 5960 nM; on Carbonic anhydrase 9, 6 nM; at Carbonic anhydrase 2 it was 74.1 nM.

Consider `NS(=O)(=O)c1ccc(-n2ncc(N3CCCCCC3)c(Cl)c2=O)cc1`, for which the figures for the Activity entry with ARPE-19 [4], in the series on ARPE-19 [5] and with PANC-1 [3] were “Dose-dependent effect”, “Dose-dependent effect” and more than 30%, respectively. Also, the Ki at Carbonic anhydrase 12 [1] stood at 8.4 nM; on Carbonic anhydrase 1 it was 97.4 nM; on Carbonic anhydrase 9, 0.49 nM; at Carbonic anhydrase 2, 0.06 nM.

`CC1=NN(c2ccc(S(N)(=O)=O)cc2)C(=O)CC1`: the Ki turned out to be 31 nM at Carbonic anhydrase 12 [1], 88.2 nM at Carbonic anhydrase 1, 32.8 nM on Carbonic anhydrase 9 and 0.68 nM at Carbonic anhydrase 2. The Activity with PANC-1 [3] is recorded as more than 30%.

Consider `NS(=O)(=O)c1ccc(-n2ncc(N3CCOCC3)cc2=O)cc1`, for which the Ki at Carbonic anhydrase 12 [1] was found to be 9.8 nM; on Carbonic anhydrase 1, 292 nM; at Carbonic anhydrase 9 it was 2.1 nM; on Carbonic anhydrase 2 it was 0.55 nM.

On to `COc1ccc2cnn(-c3ccc(S(N)(=O)=O)cc3)c(=O)c2c1OC`, for which the Ki came out at 66.4 nM at Carbonic anhydrase 12 [1], 90.7 nM at Carbonic anhydrase 1, 8.9 nM at Carbonic anhydrase 9 and 3.5 nM at Carbonic anhydrase 2.

In the case of `NS(=O)(=O)c1ccc(N2N=C(c3ccccc3)CCC2=O)cc1`, the Ki on Carbonic anhydrase 12 [1] worked out at 22.5 nM; at Carbonic anhydrase 1, 187 nM; at Carbonic anhydrase 9 it was 4.8 nM; on Carbonic anhydrase 2, 0.26 nM.

In the case of `NS(=O)(=O)c1ccc(-n2nc(-c3ccccc3O)ccc2=O)cc1`, the Ki on Carbonic anhydrase 12 [1] was 9.3 nM; at Carbonic anhydrase 1, 84.1 nM; at Carbonic anhydrase 9, 0.46 nM; at Carbonic anhydrase 2 it was 0.62 nM.

In the case of `NS(=O)(=O)c1ccc(S(=O)(=O)Nc2cccc3c(Cl)c[nH]c23)cc1`, the Ki at Carbonic anhydrase 12 [8] came to 3 nM.

For the compound `NS(=O)(=O)c1ccc(-n2ncc(NCc3ccccc3)c(Cl)c2=O)cc1`, the Ki on Carbonic anhydrase 12 [1] turned out to be 9.4 nM; on Carbonic anhydrase 1 it was 95.1 nM; at Carbonic anhydrase 9, 0.67 nM; at Carbonic anhydrase 2, 0.09 nM.

As for `Cc1nn(-c2ccc(S(N)(=O)=O)cc2)c(=O)c2ccccc12`, the Ki was 9 nM on Carbonic anhydrase 12 [1], 89.7 nM on Carbonic anhydrase 1, 0.24 nM on Carbonic anhydrase 9 and 0.03 nM on Carbonic anhydrase 2.

With `NS(=O)(=O)c1ccc(-n2ncc(N3CCN(c4ccccn4)CC3)c(Cl)c2=O)cc1`, the Ki at Carbonic anhydrase 12 [1] came out at 105 nM; on Carbonic anhydrase 1, 676 nM; on Carbonic anhydrase 9, 89.5 nM; at Carbonic anhydrase 2, 46.6 nM. Further, the Activity in the series with PANC-1 [3] is given as more than 30%.

With `NS(=O)(=O)c1ccc(-n2ncc(NCCCN3CCOCC3)c(Cl)c2=O)cc1`, the Ki at Carbonic anhydrase 12 [1] turned out to be 10.1 nM; at Carbonic anhydrase 1, 481 nM; at Carbonic anhydrase 9 it was 2.8 nM; at Carbonic anhydrase 2 it was 0.67 nM.

Take `CCN1CCN(c2cnn(-c3ccc(S(N)(=O)=O)cc3)c(=O)c2Cl)CC1`: the result in the series on SK-MEL-2 [6], with PANC-1 [9], in the series on PANC-1 [10], in the series with SK-MEL-2 [7] and in the series on PANC-1 [11] was inactive. Also, the Activity result was “Non-Toxic” in the series on ARPE-19 [4], “Non-Toxic” in the series on ARPE-19 [5] and more than 30% in the series on PANC-1 [3]. For the same compound, the Ki amounted to 7.2 nM on Carbonic anhydrase 12 [1], 485 nM on Carbonic anhydrase 1, 0.7 nM on Carbonic anhydrase 9 and 0.29 nM on Carbonic anhydrase 2.

For the compound `NS(=O)(=O)c1ccc(-n2ncccc2=O)cc1`, the result in the series with SK-MEL-2 [6], with PANC-1 [9], in the series with PANC-1 [10], in the series on SK-MEL-2 [7] and in the series on PANC-1 [11] was inactive. Further, the results for the Activity entry in the series on ARPE-19 [4], with ARPE-19 [5] and in the series on PANC-1 [3] were “Non-Toxic”, “Non-Toxic” and more than 30%, respectively. The Ki came to 81.2 nM on Carbonic anhydrase 12 [1], 320 nM at Carbonic anhydrase 1, 9 nM on Carbonic anhydrase 9 and 8.2 nM on Carbonic anhydrase 2.

In the case of `NS(=O)(=O)c1ccc(-n2nc(-c3ccc4c(c3)OCO4)ccc2=O)cc1`, the Ki was determined as 63.7 nM on Carbonic anhydrase 12 [1], 99 nM on Carbonic anhydrase 1, 28.2 nM on Carbonic anhydrase 9 and 1.4 nM at Carbonic anhydrase 2.

For orientation: Ki means the equilibrium dissociation constant of an inhibitor or competing ligand from its target. A high value points to weaker binding.
